From US20220395472A1 (Dermavant Sciences GmbH, priority 2021, published 2022)

System: adults with plaque psoriasis
Assay: Long-term open-label extension study (PSOARING 3): Physician Global Assessment (PGA), treatment episodes, treatment success, remittive effect
Assay type: in vivo, human
Description: This extension study consisted of up to 40 weeks of treatment and a 4 week, safety follow up period.
At the completion of the Week 12 visit of the DB, pivotal Phase 3 study, eligibility of the subjects opting to enroll in this extension study was confirmed. Study visits during the treatment period for all subjects occurred every 4 weeks (±3 days). A phone call was performed at Week 2 (Day 15). Unscheduled visits may have occurred, as needed. Subjects who withdrew from this study before Week 40 returned to the study center for an Early Termination visit. The total duration of this extension study participation was 44 weeks. Subjects in this study were treated as follows based on their PGA score from the Week 12 visit in the DB, pivotal Phase 3 study (Study DMVT 505 3001 or Study DMVT 505 3002).
The PGA was used to assess the primary efficacy endpoint in this study. The PGA is a clinical tool for assessing the current state/severity of a subject's psoriasis at a given time point. It is a static, 5 point, morphological assessment of overall disease severity, as determined by the Investigator, using the clinical characteristics of erythema, scaling, and plaque thickness/elevation as guidelines; higher PGA scores represent more severe disease (0=clear, 1=almost clear, 2=mild, 3=moderate, and 4=severe). The BSA affected was not considered in scoring of the PGA. Variations of the PGA are frequently used in clinical studies because it is a simple assessment, similar to those used in clinical practice. The PGA was performed first, prior to the % BSA, PASI, and LTS assessments.
Time to event parameters, such as the time from treatment success to subsequent worsening (PGA≥2) or duration of treatment episode, were summarized by the Kaplan Meier product limit method using OC.

[1] = Baseline PGA = 0, Tapinarof (Pivotal) group
[2] = Baseline PGA = 0, Vehicle (Pivotal) group
[3] = Baseline PGA = 1, Tapinarof (Pivotal) group
[4] = Baseline PGA = 1, Vehicle (Pivotal) group
[5] = Baseline PGA = 2, Tapinarof (Pivotal) group

## CC(C)c1c(O)cc(/C=C/c2ccccc2)cc1O [Tapinarof, 3,5-Dihydroxy-4-isopropyl-trans-stilbene]
Baseline PGA = 0, Overall
  Average Duration of Episodes, Mean (SD): 91.4 (66.93) days
  Average Duration of Episodes, Median: 63.0 days
  Average Duration of Treatment Success, Mean (SD): 124.2 (87.66) days
  Average Duration of Treatment Success, Median: 98.0 days
  Duration of 1st Episode, Mean (SD): 92.9 (67.74) days
  Duration of 1st Episode, Median: 65.0 days
  Duration of 1st Success, Mean (SD): 125.1 (91.87) days
  Duration of 1st Success, Median: 112.0 days
  Duration of 2nd Episode, Mean (SD): 44.1 (25.97) days
  Duration of 2nd Episode, Median: 42.0 days
  Duration of 2nd Success, Mean (SD): 87.6 (67.05) days
  Duration of 2nd Success, Median: 71.0 days
  Duration of 3rd Episode, Mean (SD): 61.0 (NE) days
  Duration of 3rd Episode, Median: 61.0 days
  Duration of 3rd Success, Mean (SD): 33.0 (29.76) days
  Duration of 3rd Success, Median: 28.0 days
  Duration of Last Episode, Mean (SD): 89.9 (68.95) days
  Duration of Last Episode, Median: 63.0 days
  Duration of Last Success, Mean (SD): 121.6 (98.44) days
  Duration of Last Success, Median: 112.0 days
  Total Duration of Treatment Episodes, Mean (SD): 109.2 (61.94) days
  Total Duration of Treatment Episodes, Median: 94.0 days
  Total Duration of Treatment Success, Mean (SD): 167.9 (84.48) days
  Total Duration of Treatment Success, Median: 170.0 days
[1]
  Average Duration of Episodes, Mean (SD): 90.2 (65.67) days
  Average Duration of Episodes, Median: 63.0 days
  Average Duration of Treatment Success, Mean (SD): 119.7 (82.74) days
  Average Duration of Treatment Success, Median: 98.0 days
  Duration of 1st Episode, Mean (SD): 91.7 (66.66) days
  Duration of 1st Episode, Median: 65.0 days
  Duration of 1st Success, Mean (SD): 120.3 (87.83) days
  Duration of 1st Success, Median: 112.0 days
  Duration of 2nd Episode, Mean (SD): 44.9 (26.43) days
  Duration of 2nd Episode, Median: 43.0 days
  Duration of 2nd Success, Mean (SD): 89.1 (67.03) days
  Duration of 2nd Success, Median: 71.0 days
  Duration of 3rd Episode, Mean (SD): 61.0 (NE) days
  Duration of 3rd Episode, Median: 61.0 days
  Duration of 3rd Success, Mean (SD): 36.2 (29.31) days
  Duration of 3rd Success, Median: 28.5 days
  Duration of Last Episode, Mean (SD): 88.8 (67.68) days
  Duration of Last Episode, Median: 63.0 days
  Duration of Last Success, Mean (SD): 118.0 (93.58) days
  Duration of Last Success, Median: 112.0 days
  Total Duration of Treatment Episodes, Median: 94.0 days
  Total Duration of Treatment Success, Mean (SD): 164.3 (82.24) days
  Total Duration of Treatment Success, Median: 168.0 days
[2]
  Average Duration of Episodes, Mean (SD): 122.8 (124.80) days
  Average Duration of Episodes, Median: 122.8 days
  Average Duration of Treatment Success, Mean (SD): 191.0 (136.91) days
  Average Duration of Treatment Success, Median: 280.0 days
  Duration of 1st Episode, Mean (SD): 126.0 (120.21) days
  Duration of 1st Episode, Median: 126.0 days
  Duration of 1st Success, Mean (SD): 195.2 (130.61) days
  Duration of 1st Success, Median: 280.0 days
  Duration of 2nd Episode, Mean (SD): 28.0 (NE) days
  Duration of 2nd Episode, Median: 28.0 days
  Duration of 2nd Success, Mean (SD): 63.5 (88.39) days
  Duration of 2nd Success, Median: 63.5 days
  Duration of 3rd Success, Mean (SD): 1.0 (NE) days
  Duration of 3rd Success, Median: 1.0 days
  Duration of Last Episode, Mean (SD): 119.5 (129.40) days
  Duration of Last Episode, Median: 119.5 days
  Duration of Last Success, Mean (SD): 174.4 (158.72) days
  Duration of Last Success, Median: 280.0 days
  Total Duration of Treatment Episodes, Mean (SD): 140.0 (100.41) days
  Total Duration of Treatment Episodes, Median: 140.0 days
  Total Duration of Treatment Success, Mean (SD): 220.8 (109.21) days
  Total Duration of Treatment Success, Median: 280.0 days
Baseline PGA = 1, Overall
  Average Duration of Episodes, Mean (SD): 140.1 (95.01) days
  Average Duration of Episodes, Median: 112.0 days
  Average Duration of Treatment Success, Median: 98.0 days
  Duration of 1st Episode, Mean (SD): 133.5 (100.06) days
  Duration of 1st Episode, Median: 87.0 days
  Duration of 1st Success, Mean (SD): 107.2 (76.62) days
  Duration of 1st Success, Median: 90.0 days
  Duration of 2nd Episode, Mean (SD): 98.4 (61.51) days
  Duration of 2nd Episode, Median: 85.0 days
  Duration of 2nd Success, Mean (SD): 75.4 (59.40) days
  Duration of 2nd Success, Median: 56.0 days
  Duration of 3rd Episode, Mean (SD): 54.9 (56.83) days
  Duration of 3rd Episode, Median: 28.0 days
  Duration of 3rd Success, Mean (SD): 15.0 (19.80) days
  Duration of 3rd Success, Median: 15.0 days
  Duration of Last Episode, Mean (SD): 146.7 (95.87) days
  Duration of Last Episode, Median: 141.0 days
  Duration of Last Success, Median: 90.0 days
  Total Duration of Treatment Episodes, Mean (SD): 165.9 (90.32) days
  Total Duration of Treatment Episodes, Median: 193.0 days
  Total Duration of Treatment Success, Mean (SD): 124.5 (78.53) days
  Total Duration of Treatment Success, Median: 120.0 days
[3]
  Average Duration of Episodes, Mean (SD): 138.9 (94.99) days
  Average Duration of Episodes, Median: 112.0 days
  Average Duration of Treatment Success, Mean (SD): 106.8 (76.36) days
  Average Duration of Treatment Success, Median: 92.5 days
  Duration of 1st Episode, Mean (SD): 132.6 (99.69) days
  Duration of 1st Episode, Median: 85.5 days
  Duration of 1st Success, Mean (SD): 106.3 (77.57) days
  Duration of 1st Success, Median: 86.0 days
  Duration of 2nd Episode, Mean (SD): 97.9 (62.19) days
  Duration of 2nd Episode, Median: 83.0 days
  Duration of 2nd Success, Mean (SD): 71.6 (58.68) days
  Duration of 2nd Success, Median: 52.0 days
  Duration of 3rd Episode, Mean (SD): 54.9 (56.83) days
  Duration of 3rd Episode, Median: 28.0 days
  Duration of 3rd Success, Mean (SD): 15.0 (19.80) days
  Duration of 3rd Success, Median: 15.0 days
  Duration of Last Episode, Mean (SD): 145.2 (96.38) days
  Duration of Last Episode, Median: 144.0 days
  Duration of Last Success, Mean (SD): 107.2 (79.80) days
  Duration of Last Success, Median: 85.5 days
  Total Duration of Treatment Episodes, Mean (SD): 165.9 (90.68) days
  Total Duration of Treatment Episodes, Median: 194.5 days
  Total Duration of Treatment Success, Mean (SD): 123.7 (78.29) days
  Total Duration of Treatment Success, Median: 116.5 days
[4]
  Average Duration of Episodes, Mean (SD): 150.0 (97.54) days
  Average Duration of Episodes, Median: 112.0 days
  Average Duration of Treatment Success, Mean (SD): 116.9 (71.80) days
  Average Duration of Treatment Success, Median: 127.0 days
  Duration of 1st Episode, Mean (SD): 141.1 (105.95) days
  Duration of 1st Episode, Median: 112.0 days
  Duration of 1st Success, Mean (SD): 115.0 (71.74) days
  Duration of 1st Success, Median: 127.0 days
  Duration of 2nd Episode, Mean (SD): 104.0 (61.27) days
  Duration of 2nd Episode, Median: 109.5 days
  Duration of 2nd Success, Mean (SD): 144.0 (NE) days
  Duration of 2nd Success, Median: 144.0 days
  Duration of Last Episode, Mean (SD): 159.0 (93.38) days
  Duration of Last Episode, Median: 134.0 days
  Duration of Last Success, Mean (SD): 118.9 (72.32) days
  Duration of Last Success, Median: 136.0 days
  Total Duration of Treatment Episodes, Mean (SD): 165.5 (89.94) days
  Total Duration of Treatment Episodes, Median: 140.0 days
  Total Duration of Treatment Success, Mean (SD): 131.0 (85.06) days
  Total Duration of Treatment Success, Median: 136.0 days
Baseline PGA = 2, Overall
  Average Duration of Episodes, Mean (SD): 175.5 (93.95) days
  Average Duration of Episodes, Median: 197.0 days
  Average Duration of Treatment Success, Mean (SD): 83.6 (69.31) days
  Average Duration of Treatment Success, Median: 66.5 days
  Duration of 1st Episode, Mean (SD): 177.8 (92.43) days
  Duration of 1st Episode, Median: 197.0 days
  Duration of 1st Success, Mean (SD): 90.4 (72.34) days
  Duration of 1st Success, Median: 83.0 days
  Duration of 2nd Episode, Mean (SD): 67.5 (52.79) days
  Duration of 2nd Episode, Median: 59.0 days
  Duration of 2nd Success, Mean (SD): 31.9 (43.41) days
  Duration of 2nd Success, Median: 27.5 days
  Duration of 3rd Episode, Mean (SD): 28.7 (27.50) days
  Duration of 3rd Episode, Median: 29.0 days
  Duration of 3rd Success, Mean (SD): 29.0 (NE) days
  Duration of 3rd Success, Median: 29.0 days
  Duration of Last Episode, Mean (SD): 173.2 (97.88) days
  Duration of Last Episode, Median: 197.0 days
  Duration of Last Success, Mean (SD): 77.3 (73.84) days
  Duration of Last Success, Median: 56.0 days
  Total Duration of Treatment Episodes, Mean (SD): 188.8 (87.61) days
  Total Duration of Treatment Episodes, Median: 200.0 days
  Total Duration of Treatment Success, Mean (SD): 98.0 (74.01) days
  Total Duration of Treatment Success, Median: 84.0 days
[5]
  Average Duration of Episodes, Mean (SD): 177.3 (95.45) days
  Average Duration of Episodes, Median: 197.0 days
  Average Duration of Treatment Success, Mean (SD): 78.7 (71.03) days
  Average Duration of Treatment Success, Median: 57.0 days
  Duration of 1st Episode, Mean (SD): 179.2 (94.49) days
  Duration of 1st Episode, Median: 197.0 days
